From patent publication US20250073337A1, “NOVEL SKIN-PERMEABLE PEPTIDE, COMPOSITION INCLUDING THE SAME FOR SKIN AND MUCOUS MEMBRANE, AND USE THEREOF” (CELLICON LAB INC., priority 2022, published 2025) come the findings set out here.

For one data set, the system named is HDF cells. The data set can be described thus: Collagen production in HDF cells (Collagen type I ELISA). Format: cell-based. To be noted: mixture of peptide and KTTKS peptide vs KTTKS alone, 48 hours; FIG. 5. Here is the method:
In order to examine the efficacy improvement of the bioactive material due to the skin permeation effect of the active ingredient by the peptide of SEQ ID NO: 8, HDF cells were treated with a mixture of KTTKS peptide, which is a bioactive material, and the peptide of SEQ ID NO: 8, or treated with KTTKS peptide alone, and collagen production amounts were analyzed using an ELISA assay.
HDF cells used in this experiment were purchased from Thermo Fisher Scientific (Waltham, MA, USA). HDF cells were cultured in Dulbecco's Modified Eagle's Medium (DMEM) supplemented with 10% fetal bovine serum (FBS), 100 U/mL penicillin, and 100 μg/mL streptomycin (Gipco, Life Technologies, Grand Island, NY, USA) and cultured in a 5% CO2 incubator at 37° C.
HDF cells at a density of 2×10^5 cells/mL were dispensed in a volume of 250 μL in 48 wells and allowed to stabilize for 24 hours. Samples were treated at different concentrations and cultured in a CO2 incubator for 48 hours, and then each culture was obtained. […] 100 μL of TMB substrate was dispensed therein, left in the dark for 30 minutes, and treated with 50 μL of a stop solution, and then absorbance was measured at 450 nm with a microspectrophotometer (Molecular Device, Sunnyvale, CA, USA).
(ELISA stands for enzyme-linked immunosorbent assay.)

Data set [1] concerns human skin. To be noted: mixture of peptide and fluorescein liposome (180 nm) vs liposome alone, 3 hours; FIG. 4. On the procedure: Aqueous solutions were then obtained through Franz diffusion cell assay, and FITC fluorescence values were analyzed using a fluorescence microplate reader (SpectraMax i3, Molecular Devices, USA).
Fluorescein was liposomized using a liposome kit purchased from Sigma Aldrich (MO, USA) and liposomizing Fluorescein was used as liposome for the skin permeability tests.

Data set [2] concerns human skin. To be noted: mixed with peptide vs treated alone; FIG. 3. On the procedure:
The FITC conjugation method was performed in accordance with the manufacturer's instructions by purchasing an FITC conjugation kit (Lightning-Link® (ab188285)) from Abcam (Cambridge, MA, USA).

In another data set the test system is real human skin. As to conditions: mixture of peptide and lidocaine, 2 mM sample, 6 hours; compared with known peptide (TAT) and with lidocaine alone; FIG. 1.
Another data set relates to actual human skin. As to conditions: mixture of peptide and caffeine vs caffeine alone, measured over time; FIG. 2. Here is the method: A mixture of the skin-permeable peptide of SEQ ID NO: 8 and caffeine or caffeine alone was treated to evaluate skin permeability thereof.
In detail, Franz diffusion cell assay was performed using actual human skin as in Example 1, and the permeation amount of caffeine was measured by HPLC and then compared (FIG. 2).

Protocol for real human skin: A mixture of skin-permeable peptides consisting of any one amino acid sequence selected from SEQ ID NO: 5 to SEQ ID NO: 8 and derivatives thereof of SEQ ID NO: 1 to SEQ ID NO: 4, or the known peptide and lidocaine, or lidocaine alone was treated to evaluate skin permeability.
In detail, to evaluate the skin permeability, real human skin was used and the skin permeability was measured by a Franz diffusion cell assay, and the permeation amount of lidocaine was measured by HPLC and then compared.
Human skin used in this experiment was purchased from UMC Science Co., Ltd., Korea, and phosphate-buffered saline (PBS, Gibco, USA) was purchased from Sigma-Aldrich. […]
The temperature of the receptor fluid was maintained constant at 32° C.±1° C., and the humidity was maintained at 30-70%, followed by stabilization for 30 minutes. […] 6 hours later, sampling was performed through a sampling arm of the receptor, and for quantification, STD (100 μM standard sample) and the sample were analyzed through HPLC, and the permeability was expressed as a percentage (%) as compared to STD.

Regarding “H-RKLFRKILKYLR-OH [SEQ ID NO: 8, H2N-[Arg-Lys-Leu-Phe-Arg-Lys-Ile-Leu-Lys-Tyr-Leu-Arg]-CO2H]”, the “production amount of collagen” value in the data set on HDF cells was “significantly increased”. In addition, in the data set on human skin [1], the “skin permeation effect of the liposome” value is reported as “remarkably increased”. Also, in the data set with human skin [2], the “skin permeability effect of 3 kDa FITC-conjugated collagen” value is “strong skin permeability effects”, the “skin permeability effect of 30 kDa FITC-conjugated collagen” value was “strong skin permeability effects”, the “skin permeability effect of 300 kDa FITC-conjugated collagen” value is given as “strong skin permeability effects” and the “skin permeability effect of 800 kDa hyaluronic acid (HA)” value is listed as “strong skin permeability effects”. In the data set with real human skin, the “skin permeation amount of lidocaine” value is “highest effect”. For the same substance, the “skin permeation amount of caffeine” value in the data set with actual human skin is listed as “significantly superior”.
